Literature values as cited in patent US8288437B2, “Salts, aqueous liquid compositions containing salts of abscisic acid analogs and methods of their preparation” (Valent BioSciences Corporation, priority 2008, dated 2012).

Settings: pure water at room temperature

CC1=CC(=O)CC(C)(C)[C@@]1(O)/C=C/C(C)=C\C(=O)O [(S)-(+)-abscisic acid, 2-cis-,4-trans-(S)-(+)-abscisic acid]
highest concentration that can be achieved in pure water: ≤ 3000 ppm
